The record followed here is article PMC5434891, “Tetramethylpyrazine blocks TFAM degradation and up-regulates mitochondrial DNA copy number by interacting with TFAM” (Bioscience Reports, 2017).

In test [1] the target is T1, TFAM (mitochondrial transcription factor A) (Homo sapiens, UniProt Q00059).
T1 construct: endogenous TFAM in HeLa ρ+ and HCT116 cell extracts
T1 sequence (Q00059 43-246): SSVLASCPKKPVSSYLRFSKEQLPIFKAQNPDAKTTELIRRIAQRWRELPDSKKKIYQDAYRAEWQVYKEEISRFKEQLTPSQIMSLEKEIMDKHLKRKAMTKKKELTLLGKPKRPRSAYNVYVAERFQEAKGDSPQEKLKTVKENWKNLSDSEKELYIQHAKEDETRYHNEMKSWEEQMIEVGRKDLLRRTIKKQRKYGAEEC
As to the kind of experiment: streptavidin-sepharose pull-down from cell extracts, immunoblot ([…]). It is filed as cell-based. (In western blotting, separated proteins are transferred to a membrane and probed.)

Test [2] has as its target T2, TFAM (mitochondrial transcription factor A) (Homo sapiens, UniProt Q00059).
T2 sequence (Q00059 43-246): T1 sequence (Q00059 43-246)
T2 sequence (P36776 68-959 partner): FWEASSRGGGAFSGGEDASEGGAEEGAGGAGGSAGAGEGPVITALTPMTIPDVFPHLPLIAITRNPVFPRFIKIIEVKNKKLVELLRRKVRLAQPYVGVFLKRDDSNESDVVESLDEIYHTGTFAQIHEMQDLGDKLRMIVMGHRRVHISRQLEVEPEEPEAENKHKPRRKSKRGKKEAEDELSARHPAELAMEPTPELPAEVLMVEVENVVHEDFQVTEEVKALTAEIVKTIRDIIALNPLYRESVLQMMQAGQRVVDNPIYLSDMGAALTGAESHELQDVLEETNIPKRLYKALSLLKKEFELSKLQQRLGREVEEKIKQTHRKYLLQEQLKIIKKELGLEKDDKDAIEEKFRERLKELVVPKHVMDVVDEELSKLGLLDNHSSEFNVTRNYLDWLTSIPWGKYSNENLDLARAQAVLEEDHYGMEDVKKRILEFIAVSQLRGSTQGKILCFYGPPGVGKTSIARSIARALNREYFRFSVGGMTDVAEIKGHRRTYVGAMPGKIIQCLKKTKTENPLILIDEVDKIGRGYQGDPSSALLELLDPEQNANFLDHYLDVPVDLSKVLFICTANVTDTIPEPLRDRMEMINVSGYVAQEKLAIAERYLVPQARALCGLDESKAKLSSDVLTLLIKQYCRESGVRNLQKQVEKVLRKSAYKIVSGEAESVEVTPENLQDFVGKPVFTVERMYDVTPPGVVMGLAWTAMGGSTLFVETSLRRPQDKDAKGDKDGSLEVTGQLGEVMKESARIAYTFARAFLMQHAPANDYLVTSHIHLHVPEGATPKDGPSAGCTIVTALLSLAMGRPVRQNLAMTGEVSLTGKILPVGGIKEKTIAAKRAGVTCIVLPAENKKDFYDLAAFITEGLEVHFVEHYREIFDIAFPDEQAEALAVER
Briefly: protection of purified TFAM from degradation by purified Lon (Western blot); binding itself shown only with the biotinylated conjugate. It is filed as biochemical.

Test [3] concerns the target T3, Lon (human mitochondrial Lon protease) (Homo sapiens, UniProt P36776).
T3 construct: gene LONP1
T3 sequence (P36776 68-959): T2 sequence (P36776 68-959 partner)
As to the kind of experiment: ADP-Glo ATPase assay with purified Lon; about […] activity left at […]. The format is biochemical. For orientation: In ADP-Glo the light output rises with the ADP produced.

Consider `Cc1nc(C)c(COC(=O)CCCC[C@@H]2SC[C@@H]3NC(=O)N[C@@H]32)nc1C` [biotinylated TMP], for which the “streptavidin-sepharose pull-down from cell extracts, immunoblot (10 μM)” value in test [1] was “TFAM was specifically pulled down only in complexes containing biotinylated-TMP and SA-sepharose”.
As to `Cc1nc(C)c(C)nc1C` [TMP, 2,3,5,6-tetramethylpyrazine], the “protection of purified TFAM from degradation by purified Lon (Western blot); bin” value in test [2] is listed as ~ 20 mM.
Consider `CC1(C)CC[C@]2(C(=O)O)CC[C@]3(C)[C@H](C(=O)C=C4[C@@]5(C)C=C(C#N)C(=O)C(C)(C)[C@@H]5CC[C@]43C)[C@@H]2C1` [CDDO, 2-cyano-3,12-dioxooleana-1,9(11)-dien-28-oic acid], for which the “ADP-Glo ATPase assay with purified Lon; about 10% activity left at 200 μM” value in test [3] is on record as “CDDO inhibited the ATPase activity of Lon in a dose-dependent manner”.
